We go through 18 compounds from patent US20250019371A1, “SMALL-MOLECULAR INHIBITORS FOR THE BETA-CATENIN/ B-CELL LYMPHOMA 9 PROTEIN-PROTEIN INTERACTION” (H. LEE MOFFITT CANCER CENTER AND RESEARCH INSTITUTE, INC., priority 2021, published 2025).

Read-outs that look alike come from different tables or passages of the source.

The conditions of assay [1]: cell-based experiments, earlier work, cited from earlier work.
Assay [2] has as its target T1, β-catenin/BCL9 PPI (Homo sapiens, UniProt P35222).
T1 construct: Full-length β-catenin (residues 1-781); host or cells: E. coli BL21 DE3
T1 sequence (P35222 1-781): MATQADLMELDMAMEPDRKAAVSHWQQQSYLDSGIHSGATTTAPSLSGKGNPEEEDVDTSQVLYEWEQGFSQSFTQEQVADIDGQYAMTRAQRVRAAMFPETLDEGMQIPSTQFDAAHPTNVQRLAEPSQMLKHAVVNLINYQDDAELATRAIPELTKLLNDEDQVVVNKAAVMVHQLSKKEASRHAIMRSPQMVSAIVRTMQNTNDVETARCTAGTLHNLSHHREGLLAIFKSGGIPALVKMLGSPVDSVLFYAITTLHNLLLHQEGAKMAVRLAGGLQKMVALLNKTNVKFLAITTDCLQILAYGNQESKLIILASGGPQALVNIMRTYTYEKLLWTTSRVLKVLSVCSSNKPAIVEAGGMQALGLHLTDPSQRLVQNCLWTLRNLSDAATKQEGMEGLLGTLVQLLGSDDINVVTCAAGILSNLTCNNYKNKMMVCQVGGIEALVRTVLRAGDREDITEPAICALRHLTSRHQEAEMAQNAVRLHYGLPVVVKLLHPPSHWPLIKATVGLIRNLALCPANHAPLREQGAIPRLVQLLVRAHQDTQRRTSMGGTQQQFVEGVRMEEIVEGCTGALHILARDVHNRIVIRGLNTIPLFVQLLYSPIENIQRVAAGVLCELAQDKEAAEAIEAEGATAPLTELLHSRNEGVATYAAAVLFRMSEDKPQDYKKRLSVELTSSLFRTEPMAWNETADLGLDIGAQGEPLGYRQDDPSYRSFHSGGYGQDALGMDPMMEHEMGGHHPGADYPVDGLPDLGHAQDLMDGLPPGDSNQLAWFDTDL
In words: AlphaScreen competitive inhibition assay of β-catenin/BCL9 PPI. It counts as binding. Conditions: for AlphaScreen inhibitory activity in words: SAR comparison; for Ki: read-out: Ki; for potency relative to compound 12: AlphaScreen Ki compared with 12. The protocol: AlphaScreen Assays of β-Catenin and BCL9 Interaction. Experiments were performed in white opaque 384-well plates from PerkinElmer (Waltham, MA), and the samples were read on a Biotek Synergy 2 plate reader (Winooski, VT) with excitation at 680 nm and emission at 570 nm. The standard AlphaScreen protocol was used with a sensitivity setting of 200. All dilutions were made in 1x assay buffer containing 25 mM Hepes (pH 7.4), 100 mM NaCl, 0.01% Triton X-100 and 0.1% BSA to minimize nonspecific interactions.
For the β-catenin/BCL9 assay, 5 nM biotinylated BCL9, and 50 nM His6-tagged 8-catenin were incubated in assay buffer for 30 min. Different concentrations of the tested inhibitor were added and incubated in 20 μL assay buffer for another 1 h. All of the assay plates were covered and gently mixed on an orbital shaker. Donor and acceptor beads were then added to the plates to a final concentration of 10 μg/mL in 25 μL assay buffer. The mixture was incubated for 1 h before detection. The IC50 value was determined by nonlinear least-square analysis of GraphPad Prism 8.0. […] All of the experiments were performed in triplicate and carried out in the presence of 1% DMSO for small-molecule inhibitors. Each compound was assayed at least by three independent experiments. The results were expressed as mean±standard deviation.

[3] abbreviates: Table 1, AlphaScreen, inhibitors 16-26.
Where [4] appears, read: Table 1, AlphaScreen, inhibitors 16-26, Ki derived from IC50.
Setting [5] is: Table 2, AlphaScreen, inhibitors 27-30 (R- and S-isomers), preliminary.
The mark [6] stands for this setting: first Table 3, AlphaScreen, inhibitors 31-35.

Consider `CC(C)c1ccc(COC(=O)N2CCC[C@@H](c3cccc(OC(C)(C)C(=O)O)c3)C2)cc1` [CP868388], for which the cellular activity entry in assay [1] was “inactive in cell-based experiments”; in assay [1] (listed as 1), “did not show any cellular activity”.

Turning to `COC(=O)C(C)(C)Oc1cccc(N2CCCC(C(=O)N(Cc3ccc(-c4cccs4)cc3)C3CC3)C2)c1` (stereo not drawn) [Compound 16, Methyl 2-(3-(3-(cyclopropyl(4-(thiophen-2-yl)benzyl)carbamoyl)piperidin-1-yl)phenoxy)-2-methylpropanoate], the “AlphaScreen inhibitory activity in words” value in assay [2] is recorded as “significant potency loss”. Further, the IC50 in assay [2] (setting [3]) was greater than 100 µM. The Ki in assay [2] (setting [4]) was greater than 90 µM.

Take `CC(C)(Oc1cccc(N2CCCC(C(=O)N(Cc3ccc(-c4cccs4)cc3)C3CC3)C2)c1)C(=O)NS(C)(=O)=O` (stereo not drawn) [Compound 18, N-Cyclopropyl-1-(3-((2-methyl-1-(methylsulfonamido)-1-oxopropan-2-yl)oxy)phenyl)-N-(4-(thiophen-2-yl)benzyl) piperidine-3-carboxamide]: the “potency relative to compound 12” value in assay [2] is recorded as “two-fold less potent than 12”. Moreover, in assay [2] (setting [3]), the IC50 was no more than 30 µM. The Ki in assay [2] (setting [4]) was no more than 30 µM.

In the case of `CC(C)(Oc1cccc(N2CCCC(C(=O)N(Cc3ccc(-c4cccs4)cc3)C3CC3)C2)c1)C(=O)NS(=O)(=O)C1CC1` (stereo not drawn) [Compound 19, 1-(3-((1-(Cyclopropanesulfonamido)-2-methyl-1-oxopropan-2-yl)oxy)phenyl)-N-cyclopropyl-N-(4-(thiophen-2-yl)benzyl) piperidine-3-carboxamide], in assay [2], the “AlphaScreen inhibitory activity in words” value is “improved activities”. Moreover, the IC50 in assay [2] (setting [3]) was no more than 30 µM. Moreover, the Ki in assay [2] (setting [4]) was no more than 30 µM.

Turning to `CC(C)S(=O)(=O)NC(=O)C(C)(C)Oc1cccc(N2CCCC(C(=O)N(Cc3ccc(-c4cccs4)cc3)C3CC3)C2)c1` (stereo not drawn) [Compound 20, N-Cyclopropyl-1-(3-((2-methyl-1-((1-methylethyl)sulfonamido)-1-oxopropan-2-yl)oxy)phenyl)-N-(4-(thiophen-2-yl)benzyl) piperidine-3-carboxamide], the “AlphaScreen inhibitory activity in words” value in assay [2] was “improved activities”. The IC50 in assay [2] (setting [3]) is no more than 30 µM. Moreover, the Ki in assay [2] (setting [4]) is no more than 30 µM.

Consider `CC(C)(Oc1cccc(N2CCCC(C(=O)N(Cc3ccc(-c4cccs4)cc3)C3CC3)C2)c1)C(=O)NS(=O)(=O)c1ccccc1` (stereo not drawn) [Compound 21, N-Cyclopropyl-1-(3-((2-methyl-1-oxo-1-(phenylsulfonamido)propan-2-yl)oxy)phenyl)-N-(4-(thiophen-2-yl)benzyl) piperidine-3-carboxamide], for which, in assay [2], the “potency relative to compound 12” value is “two-fold more potent than 12” and the “AlphaScreen inhibitory activity in words” value is recorded as “improved activities”. The concentration for half-maximal inhibition (IC50) in assay [2] (setting [3]) was no more than 10 µM. Also, the Ki in assay [2] (setting [4]) was no more than 10 µM.

Turning to `COc1cccc(S(=O)(=O)NC(=O)C(C)(C)Oc2cccc(N3CCCC(C(=O)N(Cc4ccc(-c5cccs5)cc4)C4CC4)C3)c2)c1` (stereo not drawn) [Compound 22, N-Cyclopropyl-1-(3-((1-((3-methoxyphenyl)sulfonamido)-2-methyl-1-oxopropan-2-yl)oxy)phenyl)-N-(4-(thiophen-2-yl)benzyl) piperidine-3-carboxamide], the IC50 in assay [2] (setting [3]) is no more than 10 µM. Besides, in assay [2] (setting [4]), the Ki is no more than 5 µM.

In the case of `COc1ccc(S(=O)(=O)NC(=O)C(C)(C)Oc2cccc(N3CCCC(C(=O)N(Cc4ccc(-c5cccs5)cc4)C4CC4)C3)c2)cc1` (stereo not drawn) [Compound 23, N-Cyclopropyl-1-(3-((1-((4-methoxyphenyl)sulfonamido)-2-methyl-1-oxopropan-2-yl)oxy)phenyl)-N-(4-(thiophen-2-yl)benzyl) piperidine-3-carboxamide], the IC50 in assay [2] (setting [3]) was no more than 10 µM. In addition, in assay [2] (setting [4]), the Ki was no more than 5 µM.

With `CC(C)(Oc1cccc(N2CCCC(C(=O)N(Cc3ccc(-c4cccs4)cc3)C3CC3)C2)c1)C(=O)NS(=O)(=O)c1cccc(O)c1` (stereo not drawn) [Compound 24, N-Cyclopropyl-1-(3-((1-((3-hydroxyphenyl)sulfonamido)-2-methyl-1-oxopropan-2-yl)oxy)phenyl)-N-(4-(thiophen-2-yl)benzyl) piperidine-3-carboxamide], the IC50 in assay [2] (setting [3]) is no more than 10 µM. Further, in assay [2] (setting [4]), the Ki was no more than 10 µM.

Regarding `CC(C)(Oc1cccc(N2CCCC(C(=O)N(Cc3ccc(-c4cccs4)cc3)C3CC3)C2)c1)C(=O)NS(=O)(=O)c1cccc(C#N)c1` (stereo not drawn) [Compound 25, 1-(3-((1-((3-Cyanophenyl)sulfonamido)-2-methyl-1-oxopropan-2-yl)oxy)phenyl)-N-cyclopropyl-N-(4-(thiophen-2-yl)benzyl) piperidine-3-carboxamide], the IC50 in assay [2] (setting [3]) is no more than 10 µM. Further, the Ki in assay [2] (setting [4]) was no more than 10 µM.

On to `CC(C)(Oc1cccc(N2CCCC(C(=O)N(Cc3ccc(-c4cccs4)cc3)C3CC3)C2)c1)C(=O)NS(=O)(=O)c1ccc(C#N)cc1` (stereo not drawn) [Compound 26, 1-(3-((1-((4-Cyanophenyl)sulfonamido)-2-methyl-1-oxopropan-2-yl)oxy)phenyl)-N-cyclopropyl-N-(4-(thiophen-2-yl)benzyl) piperidine-3-carboxamide], for which, in assay [2] (setting [3]), the IC50 is no more than 5 µM. Besides, the Ki in assay [2] (setting [4]) was no more than 5 µM.

For `COc1cccc(S(=O)(=O)NC(=O)C(C)(C)Oc2cccc(N3CCC[C@@H](C(=O)N(Cc4ccc(-c5cccs5)cc4)C4CC4)C3)c2)c1` [Compound 27, (R)—N-Cyclopropyl-1-(3-((1-((3-methoxyphenyl)sulfonamido)-2-methyl-1-oxopropan-2-yl)oxy)phenyl)-N-(4-(thiophen-2-yl)benzyl) piperidine-3-carboxamide], in assay [2] (setting [5]), the IC50 was no more than 10 µM and the Ki is no more than 5 µM.

With `CC(C)(Oc1cccc(N2CCC[C@@H](C(=O)N(Cc3ccc(-c4cccs4)cc3)C3CC3)C2)c1)C(=O)NS(=O)(=O)c1ccc(C#N)cc1` [Compound 29, (R)-1-(3-((1-((4-Cyanophenyl)sulfonamido)-2-methyl-1-oxopropan-2-yl)oxy)phenyl)-N-cyclopropyl-N-(4-(thiophen-2-yl)benzyl) piperidine-3-carboxamide], in assay [2] (setting [5]), the IC50 is no more than 5 µM and the Ki is no more than 5 µM.

`CC(C)(Oc1cccc(N2CCCC(C(=O)N(Cc3ccc(-c4cccs4)cc3)C3CC3)C2)c1)C(=O)NS(=O)(=O)C(F)(F)F` (stereo not drawn) [Compound 31]: in assay [2] (setting [6]), the IC50 was roughly 200 µM and the Ki was roughly 168 µM.

In the case of `CC(C)(Oc1cccc(N2CCC[C@@H](C(=O)N(Cc3ccc(-c4cccs4)cc3)C3CC3)C2)c1)C(=O)NS(=O)(=O)C1CC1` [Compound 32], in assay [2] (setting [6]), the IC50 is no more than 30 µM and the Ki is no more than 30 µM.

`CC(C)(Oc1cccc(N2CCC[C@H](C(=O)N(Cc3ccc(-c4cccs4)cc3)C3CC3)C2)c1)C(=O)NS(=O)(=O)C1CC1` [Compound 33]: in assay [2] (setting [6]), the IC50 was no more than 30 µM and the Ki is no more than 30 µM.

Turning to `COc1ccc(S(=O)(=O)NC(=O)C(C)(C)Oc2cccc(N3CCC[C@H](C(=O)N(Cc4ccc(-c5cccs5)cc4)C4CC4)C3)c2)cc1` [Compound 34], in assay [2] (setting [6]), the IC50 is no more than 30 µM and the Ki is no more than 30 µM.

With `CC(C)(Oc1cccc(N2CCC[C@H](C(=O)N(Cc3ccc(-c4cccs4)cc3)C3CC3)C2)c1)C(=O)NS(=O)(=O)c1cccc(C#N)c1` [Compound 35], in assay [2] (setting [6]), the IC50 is no more than 10 µM and the Ki was no more than 10 µM.

The term IC50 denotes the concentration that gives 50% inhibition. What is called Ki is a measure of affinity in units of concentration, obtained from inhibition or displacement.
